Measurements published in patent US20150087673A1, “METHODS FOR USING AND BIOMARKERS FOR AMPK-ACTIVATING COMPOUNDS” (RIGEL PHARMACEUTICALS, INC., priority 2013, published 2015).
pEC50: −log10 of the molar value.

Test system: AMPK
Experiment: AMPK activation assay (enzyme-linked immunosorbent assay)
Assay type: cell-based
Procedure: Compounds were assayed for their ability to activate AMPK using an enzyme-linked immunosorbent assay. Reagents and procedures for measuring AMPK activation are well known and kits for AMPK activation assays are commercially available.

| pEC50 | SMILES |
| --- | --- |
| > 6.30 | O=C(Nc1cccc(Oc2ccccc2)c1)c1ccc(C(=O)N2CCN(Cc3ccc(F)cc3)CC2)cn1 [Compound 21, 5-(4-(4-fluorobenzyl)piperazine-1-carbonyl)-N-(3-phenoxyphenyl)picolinamide] |
| 6.00 to 6.30 | O=C(Nc1ccc(OCc2ccccc2)cc1)c1ccc(C(=O)N2CCN(Cc3ccc(F)cc3)CC2)cn1 [Compound 27, N-(4-benzyloxyphenyl)-5-(4-(4-fluorobenzyl)piperazine-1-carbonyl)picolinamide] |
| 6.00 to 6.30 | COc1ccc(-c2ccc(NC(=O)c3ccc(C(=O)N4CCN(Cc5ccc(F)cc5)CC4)cn3)cc2)cc1 [Compound 29, N-(4-(4-methoxyphenyl)phenyl)-5-(4-(4-fluorobenzyl)piperazine-1-carbonyl)picolinamide] |
| > 6.30 | Cc1ccc(Oc2ccc(NC(=O)c3ccc(C(=O)N4CCN(Cc5ccc(F)cc5)CC4)cn3)cc2)cc1 [Compound 53, 5-(4-(4-fluorobenzyl)piperazine-1-carbonyl)-N-(4-(4-methylphenoxy)phenyl)picolinamide] |
| > 6.30 | COc1ccc(Oc2ccc(NC(=O)c3ccc(C(=O)N4CCN(Cc5ccc(F)cc5)CC4)cn3)cc2)cc1 [Compound 54, 5-(4-(4-fluorobenzyl)piperazine-1-carbonyl)-N-(4-(4-methoxyphenoxy)phenyl)picolinamide] |
| > 6.30 | O=C(Nc1ccc(Oc2cccc(F)c2)cc1)c1ccc(C(=O)N2CCN(Cc3ccc(F)cc3)CC2)cn1 [Compound 55, 5-(4-(4-fluorobenzyl)piperazine-1-carbonyl)-N-(4-(3-fluorophenoxy)phenyl)picolinamide] |
| > 6.30 | N#Cc1cccc(Oc2ccc(NC(=O)c3ccc(C(=O)N4CCN(Cc5ccc(F)cc5)CC4)cn3)cc2)c1 [Compound 56, N-(4-(3-cyanophenoxy)phenyl)-5-(4-(4-fluorobenzyl)piperazine-1-carbonyl)picolinamide] |
| > 6.30 | COc1cccc(Oc2ccc(NC(=O)c3ccc(C(=O)N4CCN(Cc5ccc(F)cc5)CC4)cn3)cc2)c1 [Compound 57, 5-(4-(4-fluorobenzyl)piperazine-1-carbonyl)-N-(4-(3-methoxyphenoxy)phenyl)picolinamide] |
| > 6.30 | Cc1cccc(Oc2ccc(NC(=O)c3ccc(C(=O)N4CCN(Cc5ccc(F)cc5)CC4)cn3)cc2)c1 [Compound 58, 5-(4-(4-fluorobenzyl)piperazine-1-carbonyl)-N-(4-(3-methylphenoxy)phenyl)picolinamide] |
| > 6.30 | N#Cc1ccc(Oc2ccc(NC(=O)c3ccc(C(=O)N4CCN(Cc5ccc(F)cc5)CC4)cn3)cc2)cc1 [Compound 59, N-(4-(4-cyanophenoxy)phenyl)-5-(4-(4-fluorobenzyl)piperazine-1-carbonyl)picolinamide] |
| > 6.30 | O=C(Nc1ccc(Oc2ccc(F)cc2)cc1)c1ccc(C(=O)N2CCN(Cc3ccc(F)cc3)CC2)cn1 [Compound 60, 5-(4-(4-fluorobenzyl)piperazine-1-carbonyl)-N-(4-(4-fluorophenoxy)phenyl)picolinamide] |

Further lines, the compound ahead of its results:

| SMILES | pEC50 |
| --- | --- |
| CC(c1ccccc1)N1CCC(NC(=O)c2ccc(C(=O)N3CCN(Cc4ccc(F)cc4)CC3)cn2)CC1 (stereo not shown) [Compound 18, 5-(4-(4-fluorobenzyl)piperazine-1-carbonyl)-N-(1-(1-phenylethyl)piperidin-4-yl)picolinamide] | > 6.30 |
| O=C(c1ccc(-c2cccc(OCc3ccccc3)c2)nc1)N1CCN(Cc2ccc(F)cc2)CC1 [Compound 22, (6-(3-(benzyloxy)phenyl)pyridin-3-yl)(4-(4-fluorobenzyl)piperazin-1-yl)methanone] | > 6.30 |
| N#Cc1ccc(Cn2cc(NC(=O)c3ccc(C(=O)N4CCN(Cc5ccc(F)cc5)CC4)cn3)cn2)cc1 [Compound 23, N-(1-(4-cyanobenzyl)-1H-pyrazol-4-yl)-5-(4-(4-fluorobenzyl)piperazine-1-carbonyl)picolinamide] | > 6.30 |
| N#Cc1ccc(-c2ccc(NC(=O)c3ccc(C(=O)N4CCN(Cc5ccc(F)cc5)CC4)cn3)cc2)cc1 [Compound 24, N-(4-(4-cyanophenyl)phenyl)-5-(4-(4-fluorobenzyl)piperazine-1-carbonyl)picolinamide] | > 6.30 |
| O=C(Nc1ccc(-c2ccc(C(F)(F)F)cc2)cc1)c1ccc(C(=O)N2CCN(Cc3ccc(F)cc3)CC2)cn1 [Compound 25, 5-(4-(4-fluorobenzyl)piperazine-1-carbonyl)-N-(4-(4-trifluoromethylphenyl)phenyl)picolinamide] | > 6.30 |
| O=C(c1ccccc1)c1ccc(NC(=O)c2ccc(C(=O)N3CCN(Cc4ccc(F)cc4)CC3)cn2)cc1 [Compound 26, N-(4-benzoylphenyl)-5-(4-(4-fluorobenzyl)piperazine-1-carbonyl)picolinamide] | > 6.30 |
| O=C(Nc1ccc(Br)cc1)c1ccc(C(=O)N2CCN(Cc3ccc(F)cc3)CC2)cn1 [Compound 28, N-(4-bromophenyl)-5-(4-(4-fluorobenzyl)piperazine-1-carbonyl)picolinamide] | 6.00 to 6.30 |
| O=C(c1ccc(Nc2ccc(Cc3ccccc3)cc2)nc1)N1CCN(Cc2ccc(F)cc2)CC1 [Compound 30] | 5.30 to 6.00 |
| N#Cc1ccc(CN2CCC3(CC2)CCN(c2ccc(C(=O)N4CCN(Cc5ccc(F)cc5)CC4)cn2)C3)cc1 [Compound 31, 4-((2-(5-(4-(4-fluorobenzyl)piperazine-1-carbonyl)pyridin-2-yl)-2,8-diazaspiro[4.5]decan-8-yl)methyl)benzonitrile] | > 6.30 |
| N#Cc1cccc(-c2ccc(NC(=O)c3ccc(C(=O)N4CCN(Cc5ccc(F)cc5)CC4)cn3)cc2)c1 [Compound 32, N-(4-(3-cyanophenyl)phenyl)-5-(4-(4-fluorobenzyl)piperazine-1-carbonyl)picolinamide] | 6.00 to 6.30 |
| O=C(c1ccc(Nc2cccc(-c3ccccc3)c2)nc1)N1CCN(Cc2ccc(F)cc2)CC1 [Compound 33, (6-(3-phenylphenylamino)pyridin-3-yl)(4-(4-fluorobenzyl)piperazin-1-yl)methanone] | 5.00 to 5.30 |
| O=C(c1ccc(Nc2ccc(Oc3ccccc3)cc2)nc1)N1CCN(Cc2ccc(F)cc2)CC1 [Compound 34, (4-(4-fluorobenzyl)piperazin-1-yl)(6-(4-phenoxyphenylamino)pyridin-3-yl)methanone] | 5.30 to 6.00 |
| N#Cc1ccc(CNC(=O)c2ccc(-c3ccc(C(=O)N4CCN(Cc5ccc(F)cc5)CC4)cn3)cc2)cc1 [Compound 35, (6-(4-(4-cyanobenzylcarbamoyl)phenyl)pyridin-3-yl)(4-(4-fluorobenzyl)piperazin-1-yl)methanone] | 6.00 to 6.30 |
| N#Cc1ccc(CN2CCC(Nc3ccc(C(=O)N4CCN(Cc5ccc(F)cc5)CC4)cn3)CC2)cc1 [Compound 36, (6-(4-(cyanobenzyl)piperidin-4-ylamino)pyridin-3-yl)(4-(4-fluorobenzyl)piperazin-1-yl)methanone] | 6.00 to 6.30 |
| O=C(c1ccc(Nc2ccc(-c3ccccc3)cc2)nc1)N1CCN(Cc2ccc(F)cc2)CC1 [Compound 37, (6-(4-phenylphenylamino)pyridin-3-yl)(4-(4-fluorobenzyl)piperazin-1-yl)methanone] | 5.00 to 5.30 |
| N#Cc1ccc(CN2CCC(NC(=O)c3ccc(C(=O)Nc4ccn(Cc5ccc(C#N)cc5)n4)cn3)CC2)cc1 [Compound 38, N^5-(1-(4-cyanobenzyl)-1H-pyrazol-3-yl)-N^2-(1-(4-cyanobenzyl)piperidin-4-yl)pyridine-2,5-dicarboxamide] | 6.00 to 6.30 |
| O=C(Nc1ccc(-c2cc[nH]c2)cc1)c1ccc(C(=O)N2CCN(Cc3ccc(F)cc3)CC2)cn1 [Compound 39, 5-(4-(4-fluorobenzyl)piperazine-1-carbonyl)-N-(4-(1H-pyrrol-3-yl)phenyl)picolinamide] | 5.30 to 6.00 |
| O=C(Nc1ccc(N2CCOCC2)cc1)c1ccc(C(=O)N2CCN(Cc3ccc(F)cc3)CC2)cn1 [Compound 40, 5-(4-(4-fluorobenzyl)piperazine-1-carbonyl)-N-(4-morpholinophenyl)picolinamide] | 5.30 to 6.00 |
| CN1CCN(c2ccc(NC(=O)c3ccc(C(=O)N4CCN(Cc5ccc(F)cc5)CC4)cn3)cc2)CC1 [Compound 41, 5-(4-(4-fluorobenzyl)piperazine-1-carbonyl)-N-(4-(4-methylpiperazin-1-yl)phenyl)picolinamide] | < 5.00 |
| N#Cc1ccc(CNC(=O)c2cccc(-c3ccc(C(=O)N4CCN(Cc5ccc(F)cc5)CC4)cn3)c2)cc1 [Compound 42, (6-(3-(4-cyanobenzylcarbamoyl)phenyl)pyridin-3yl)(4-(4-fluorobenzyl)piperazin-1-yl)methanone] | 5.30 to 6.00 |
| N#Cc1ccc(CN2CCC(NC(=O)c3ccc(C(=O)Nc4cnn(Cc5ccc(C#N)cc5)c4)cn3)CC2)cc1 [Compound 43, N^5-(1-(4-cyanobenzyl)-1H-pyrazol-4-yl)-N^2-(1-(4-cyanobenzyl)piperidin-4-yl)pyridine-2,5-dicarboxamide] | 5.30 to 6.00 |
| N#Cc1ccc(CNC(=O)c2ccc(NC(=O)c3ccc(C(=O)N4CCN(Cc5ccc(F)cc5)CC4)cn3)cc2)cc1 [Compound 47, N-(4-(4-cyanobenzylcarbamoyl)phenyl)-5-(4-(4-fluorobenzyl)piperazine-1-carbonyl)picolinamide] | > 6.30 |
| O=C(NC1CCN(Cc2cc(F)cc(F)c2)CC1)c1ccc(C(=O)N2CCN(Cc3ccc(F)cc3)CC2)cn1 [Compound 49, N-(1-(3,5-difluorobenzyl)piperidin-4-yl)-5-(4-(4-fluorobenzyl)piperazine-1-carbonyl)picolinamide] | > 6.30 |
| Cc1cc(CN2CCC(NC(=O)c3ccc(C(=O)N4CCN(Cc5ccc(F)cc5)CC4)cn3)CC2)ccc1F [Compound 50, 5-(4-(4-fluorobenzyl)piperazine-1-carbonyl)-N-(1-(4-fluoro-3-methylbenzyl)piperidin-4-yl)picolinamide] | > 6.30 |
| O=C(NC1CCN(Cc2ccc(Cl)cc2)CC1)c1ccc(C(=O)N2CCN(Cc3ccc(F)cc3)CC2)cn1 [Compound 52] | > 6.30 |
| O=C(Nc1ccc(-c2cccnc2)cc1)c1ccc(C(=O)N2CCN(Cc3ccc(F)cc3)CC2)cn1 [Compound 61, 5-(4-(4-fluorobenzyl)piperazine-1-carbonyl)-N-(4-(pyridine-3-yl)phenyl)picolinamide] | > 6.30 |
